Experimental findings from patent publication US20190374481A1, “ADMINISTRATION REGIMEN FOR A PHARMACEUTICAL PATCH COMPRISING LIDOCAINE AND DICLOFENAC” (TEIKOKU SEIYAKU CO., LTD., priority 2017, published 2019) are described below.

Test [1] has as its system CFA-induced edema of paw / mechanical-hyperalgesia. Put plainly: CFA-hindpaw inflammation, paw pressure test (CFA-PPT), topical application to the paw. Format: in vivo, rat. The protocol:
In comparative example 2 and inventive examples 5 to 8 as described below, a compound or combination of compounds was administered topically to the paw by means of an ointment or solution (FIGS. 10 to 18).
The efficacy was tested when a compound or a compositions of compounds was administered topically as an ointment or a solution. The study was performed on male albino rats (150-180 g body weight) to which an edema of paw was induced by injection of Complete Freunds Adjuvant (CFA). CFA is a composition of inactivated and dried Myobacteria tuberculoses, emulsified in mineral oil which is used as an immunopotentiator causing a painful reaction that lasts 7-8 days after subcutaneous injection.
The studies of comparative example 2 and inventive examples 5 to 8 were performed according to the following procedure: 50 μL of CFA were injected sub plantar into the right hind paw, inducing mechanical-hyperalgesia after 24 hours. […]
The pain was measured by pressing a pointer on the inflamed paw. The pointer exerts a force, increasing at a constant rate, monitored by a linear scale. […] Efficacy of the test compounds is expressed as a percent change of withdrawal threshold after compound administration to the pre-value (withdrawal threshold before compound administration).

In the next test the test system is CFA-hindpaw inflammation. Put plainly: CFA-hindpaw inflammation, paw pressure test (CFA-PPT), intraperitoneal injection. It is filed as in vivo, rat. The protocol:
An interaction study was performed as a single dose study in the CFA-hindpaw inflammation, paw pressure test.
In comparative example 1 and inventive examples 1 to 4 described below, a compound or combination of compounds was administered by intraperitoneal injection (FIGS. 1 to 9).
The pain was measured by pressing a pointer on the inflamed paw. The pointer exerts a force, increasing at a constant rate, monitored by a linear scale. Pain is deemed to be perceived one the rat starts to withdraw the paw. This value (withdrawal threshold in gram) is the pressure at which the animal feels pain (cut-off 450 g). Efficacy of the test compounds is expressed as a percent change of withdrawal threshold after compound administration to the pre-value (withdrawal threshold before compound administration).

As for `O=C(O)Cc1ccccc1Nc1c(Cl)cccc1Cl` [Diclofenac, 2-(2,6-dichloranilino) phenylacetic acid], the “efficacy in CFA-PPT when topically administered alone” value in test [1] (Diclofenac alone, 40 mg/ml to 80 mg/ml) was “dose dependent efficacy”. The “efficacy in CFA-PPT when administered alone” value with CFA-hindpaw inflammation (Diclofenac alone, dose range 21.5 mg/kg to 100 mg/kg ip) is listed as “dose dependent efficacy”.

On to `CCN(CC)CC(=O)Nc1c(C)cccc1C` [Lidocaine, 2-(diethylamino)-N-(2,6-dimethylphenyl)acetamide], for which the “efficacy in CFA-PPT when topically administered alone” value in test [1] (Lidocaine alone, 30 mg/ml to 60 mg/ml) is listed as “dose dependent efficacy”. For the same compound, the “efficacy in CFA-PPT when administered alone” value in the test with CFA-hindpaw inflammation (Lidocaine alone, dose range 10 mg/kg to 46.4 mg/kg ip) was “dose dependent efficacy”.
